Measurements as given in patent US10098852B2 (LAUNX BIOMEDICAL CO., LTD., priority 2014, dated 2018).
Where two headings read alike, the source gives them in different places.

How the values were obtained:
Type in all cases: cell-based
[1] = system: A549 (lung adenocarcinoma); assay: Cell viability analysis (WST-1), lung cancer cell line A549; settings: Homo sapiens
[2] = system: TSGH (bladder cancer cell line); assay: Cell viability analysis (WST-1), bladder cancer cell line TSGH
Protocol: (§1) The cell numbers were counted and reseed as 2×10^6 in cell culture plate/flask. Then, the culture medium was added to a volume of 10 ml, and the cells were cultured for 2-3 days. Then, the cells were suspended for loading into 96-well plates. The cell number was 3000/well and the volume of the culture medium was 100 μl each well.
(§2) Removing the original culture medium from 96-well plate. Then add 100 μl of commercially drug at a concentration of 10 μM per well. After 72 hours, add the diluted WST-1 reagent to the well with 100 μl/well, and the diluted WST-1 reagent was acquired from the dilution of 9:1 medium and WST-1 stock reagent. Finally, the total volume of each well was 200 μl/well. Culture the 96-well plate at 37° C. for 30 to 90 minutes. Detecting and calculate the survival rate of each cancer cells with an ELISA reader at OD450 nm.

[3] = system: HeLa (Cervix Adenocarcinoma); assay: Cell viability analysis (WST-1), cervical cancer cell line HeLa; settings: Homo sapiens
Protocol: as §1, §2

[4] = system: C-33A (Cervical carcinoma); assay: Cell viability analysis (WST-1), cervical cancer cell line C-33A; settings: Homo sapiens, 72 h
Protocol: as §1, §2

[5] = system: PC-3 (Prostate adenocarcinoma); assay: Cell viability analysis (WST-1), prostate cancer cell line PC-3; settings: PC-3, 10 μM
Protocol: as §1, §2

[6] = system: AGS (Gastric Adenocarcinoma); assay: Cell viability analysis (WST-1), gastric cancer cell line AGS
Protocol: as §1, §2

[7] = system: MKN-45 (Gastric Adenocarcinoma); assay: Cell viability analysis (WST-1), gastric cancer cell line MKN-45; settings: Homo sapiens
[8] = system: HepG2 (hepatocellular carcinoma); assay: Cell viability analysis (WST-1), hepatic cancer cell line HepG2; settings: Homo sapiens
Protocol: as §1, §2

[9] = system: Hep3B (hepatocellular carcinoma); assay: Cell viability analysis (WST-1), hepatic cancer cell line Hep3B; settings: Homo sapiens
[10] = system: HCT116-wt (colorectal carcinoma); assay: Cell viability analysis (WST-1), colorectal cancer cell line HCT116-wt
Protocol: as §1, §2

[11] = system: U2OS (osteosarcoma cell line); assay: Cell viability analysis (WST-1), osteosarcoma cell line U2OS; settings: Homo sapiens
Protocol: as §1, §2

[12] = system: A375 (amelanotic melanoma); assay: Cell viability analysis (WST-1), skin cancer cell line A375; settings: Homo sapiens
Protocol: as §1, §2

[13] = Cell viability analysis (WST-1), human fibroblast cell line HFW; settings: HFW fibroblast cells (normal)
Protocol: as §1, §2

lung cancer cell = assay: Summary of the effect on lung cancer cell (A549, H1650); settings: lung cancer cell (mean of A549 and H1650 averages), 72 hours, read-out: Inhibitory effect
Protocol: as §2

bladder cancer cell = assay: Summary of the effect on bladder cancer cell (TSGH, T24); settings: bladder cancer cell (mean of TSGH and T24 averages), 72 hours, read-out: Inhibitory effect
Protocol: as §2

cervical cancer cell = assay: Summary of the effect on cervical cancer cell (HeLa, C-33A); settings: cervical cancer cell (mean of HeLa and C-33A averages), 72 hours, read-out: Inhibitory effect
Protocol: as §2

prostate cancer cell = assay: Summary of the effect on prostate cancer cell (PC-3, LNCap); settings: Homo sapiens, prostate cancer cell (mean of PC-3 and LNCap averages), 72 hours, read-out: Inhibitory effect
Protocol: as §2

breast cancer cell = assay: Summary of the effect on breast cancer cell (MCF7, MDA-MB-231); settings: breast cancer cell (mean of MCF7 and MDA-MB-231 averages), 72 hours, read-out: Inhibitory effect
Protocol: as §2

colorectal cancer cell = assay: Summary of the effect on colorectal cancer cell (HCT116-wt, LoVo); settings: Homo sapiens, colorectal cancer cell (mean of HCT116-wt and LoVo averages), 72 hours, read-out: Inhibitory effect
Protocol: as §2

pancreatic cancer cell = assay: Summary of the effect on pancreatic cancer cell (AsPC-1, BxPC-3); settings: pancreatic cancer cell (mean of AsPC-1 and BxPC-3 averages), 72 hours, read-out: Inhibitory effect
Protocol: as §2

[14] = 72 h, average of 4 tests, read-out: inhibition effect (survival rate of cells), average
[15] = 72 hours, test 0510-10 min, read-out: inhibition effect (survival rate of cells)
[16] = 72 hours, test 0512-10 min, read-out: inhibition effect (survival rate of cells)
[17] = 72 hours, test 0515-10 min, read-out: inhibition effect (survival rate of cells)
[18] = 72 hours, test 0517-10 min, read-out: inhibition effect (survival rate of cells)
[19] = average of 4 tests, read-out: inhibition effect (survival rate of cells), average

Oc1ccc(OCc2ccccc2)cc1 [Monobenzone]
viability at 10 µM ([1]; A549, 72 h, A549, 10 μM, average of 4 tests, read-out: inhibition effect (survival rate of cells), Average): 93.4% | viability at 10 µM ([1]; A549, A549, 10 μM, 72 hours, test 0524-10 min, read-out: inhibition effect (survival rate of cells)): 80.8% | viability at 10 µM ([1]; A549, A549, 10 μM, 72 hours, test 0526-10 min, read-out: inhibition effect (survival rate of cells)): 111% | viability at 10 µM ([1]; A549, A549, 10 μM, 72 hours, test 0529-10 min, read-out: inhibition effect (survival rate of cells)): 80.8% | viability at 10 µM [2, 14]: 84.6% | viability at 10 µM [2, 15]: 90.2% | viability at 10 µM [2, 16]: 92.8% | viability at 10 µM [2, 17]: 83% | viability at 10 µM [2, 18]: 72.5% | viability at 10 µM [3, 14]: 80.1% | viability at 10 µM ([3]; 72 hours, test 0524-10 min, read-out: inhibition effect (survival rate of cells)): 82.8% | viability at 10 µM ([3]; 72 hours, test 0526-10 min, read-out: inhibition effect (survival rate of cells)): 72.8% | viability at 10 µM ([3]; 72 hours, test 0529-10 min, read-out: inhibition effect (survival rate of cells)): 82.7% | viability at 10 µM ([3]; 72 hours, test 0531-10 min, read-out: inhibition effect (survival rate of cells)): 81.9% | viability at 10 µM [4, 19]: 62.3% | viability at 10 µM ([4]; test 1, read-out: inhibition effect (survival rate of cells)): 57.9% | viability at 10 µM ([4]; test 2, read-out: inhibition effect (survival rate of cells)): 66.2% | viability at 10 µM ([4]; test 3, read-out: inhibition effect (survival rate of cells)): 61% | viability at 10 µM ([4]; test 4, read-out: inhibition effect (survival rate of cells)): 64.3% | viability at 10 µM [5, 14]: 62.5% | viability at 10 µM ([5]; 72 hours, test PC-3-0524-10 min, read-out: inhibition effect (survival rate of cells)): 57% | viability at 10 µM ([5]; 72 hours, test PC-3-0526-10 min, read-out: inhibition effect (survival rate of cells)): 70.6% | viability at 10 µM ([5]; 72 hours, test PC-3-0529-10 min, read-out: inhibition effect (survival rate of cells)): 63.2% | viability at 10 µM ([5]; 72 hours, test PC-3-0531-10 min, read-out: inhibition effect (survival rate of cells)): 59% | viability at 10 µM [6, 14]: 68.4% | viability at 10 µM [6, 15]: 85.2% | viability at 10 µM [6, 16]: 51.3% | viability at 10 µM [6, 17]: 62.2% | viability at 10 µM [6, 18]: 74.9% | viability at 10 µM ([7]; MKN-45, 72 h, MKN-45, 10 μM, average of 4 tests, read-out: inhibition effect (survival rate of cells), average): 97.2% | viability at 10 µM ([7]; MKN-45, MKN-45, 10 μM, 72 hours, test 0510-10 min, read-out: inhibition effect (survival rate of cells)): 89.2% | viability at 10 µM ([7]; MKN-45, MKN-45, 10 μM, 72 hours, test 0512-10 min, read-out: inhibition effect (survival rate of cells)): 107% | viability at 10 µM ([7]; MKN-45, MKN-45, 10 μM, 72 hours, test 0517-10 min, read-out: inhibition effect (survival rate of cells)): 91.3% | viability at 10 µM ([8]; HepG2, 72 h, HepG2, 10 μM, average of 4 tests, read-out: inhibition effect (survival rate of cells), average): 84.7% | viability at 10 µM ([8]; HepG2, HepG2, 10 μM, 72 hours, test 0524-20 min, read-out: inhibition effect (survival rate of cells)): 88.2% | viability at 10 µM ([8]; HepG2, HepG2, 10 μM, 72 hours, test 0526-20 min, read-out: inhibition effect (survival rate of cells)): 85.6% | viability at 10 µM ([8]; HepG2, HepG2, 10 μM, 72 hours, test 0529-20 min, read-out: inhibition effect (survival rate of cells)): 90.8% | viability at 10 µM ([8]; HepG2, HepG2, 10 μM, 72 hours, test 0531-20 min, read-out: inhibition effect (survival rate of cells)): 74.3% | viability at 10 µM [9, 14]: 106% | viability at 10 µM ([9]; 72 hours, test 0612-20 min, read-out: inhibition effect (survival rate of cells)): 111% | viability at 10 µM ([9]; 72 hours, test 0614-20 min, read-out: inhibition effect (survival rate of cells)): 116% | viability at 10 µM ([9]; 72 hours, test 0616-20 min, read-out: inhibition effect (survival rate of cells)): 96.8% | viability at 10 µM [10, 14]: 95% | viability at 10 µM ([10]; 72 hours, test 0602-30 min, read-out: inhibition effect (survival rate of cells)): 91.1% | viability at 10 µM ([10]; 72 hours, test 0605-10 min, read-out: inhibition effect (survival rate of cells)): 104% | viability at 10 µM ([10]; 72 hours, test 0607-10 min, read-out: inhibition effect (survival rate of cells)): 99.9% | viability at 10 µM ([10]; 72 hours, test 0609-10 min, read-out: inhibition effect (survival rate of cells)): 85.3% | viability at 10 µM [11, 14]: 72.7% | viability at 10 µM ([11]; 72 h, osteosarcoma cell (U2OS average), read-out: Inhibitory effect): 72.7% | viability at 10 µM ([11]; 72 hours, test 6-26-10 min, read-out: inhibition effect (survival rate of cells)): 69.3% | viability at 10 µM ([11]; 72 hours, test 6-28-10 min, read-out: inhibition effect (survival rate of cells)): 66.7% | viability at 10 µM ([11]; 72 hours, test 6-30-10 min, read-out: inhibition effect (survival rate of cells)): 73% | viability at 10 µM ([11]; 72 hours, test 7-3-10 min, read-out: inhibition effect (survival rate of cells)): 81.7% | viability at 10 µM ([12]; A-375, 72 h, A375, 10 μM, average of 4 tests, read-out: inhibition effect (survival rate of cells), Average): 76.4% | viability at 10 µM ([12]; A-375, A375, 10 μM, 72 hours, test 0602-30 min, read-out: inhibition effect (survival rate of cells)): 56.7% | viability at 10 µM ([12]; A-375, A375, 10 μM, 72 hours, test 0605-10 min, read-out: inhibition effect (survival rate of cells)): 64.8% | viability at 10 µM ([12]; A-375, A375, 10 μM, 72 hours, test 0607-10 min, read-out: inhibition effect (survival rate of cells)): 77.3% | viability at 10 µM ([12]; A-375, A375, 10 μM, 72 hours, test 0609-10 min, read-out: inhibition effect (survival rate of cells)): 107% | viability at 72 h, 10 µM [13, 19]: 85.4% | viability at 72 h, 10 µM ([13]; test 0612-10 min, read-out: inhibition effect (survival rate of cells)): 120% | viability at 72 h, 10 µM ([13]; test 0614-10 min, read-out: inhibition effect (survival rate of cells)): 74.9% | viability at 72 h, 10 µM ([13]; test 0616-10 min, read-out: inhibition effect (survival rate of cells)): 68.1% | viability at 72 h, 10 µM ([13]; test 0619-10 min, read-out: inhibition effect (survival rate of cells)): 79.1% | viability at 10 µM (lung cancer cell): 89.8% | viability at 10 µM (bladder cancer cell): 85.8% | viability at 10 µM (cervical cancer cell): 71.2% | viability at 10 µM (prostate cancer cell): 65.2% | viability at 10 µM (breast cancer cell): 87.9% | viability at 10 µM (colorectal cancer cell): 89% | viability at 10 µM (pancreatic cancer cell): 86.8%
